Measurements reported in patent publication US20260297105A1, “RAF-MEK PROTEIN COMPLEX MODULATORS AND METHODS OF USE THEREOF” (GANDEEVA THERAPEUTICS, INC., priority 2023, published 2026).

Key:
[1] = system: BRAF-MEK1; assay: BRAF-MEK TR-FRET assay, stabilization of MEK1 and BRAF interaction; type: binding; conditions: 4 nM BRAF, 10 nM MEK, 100 μM ATP; 1 hr at 25° C.; read-out: BRAF-MEK TR-FRET Assay (EC50, fold stabilization)
Method in brief: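 Read-out is fold stabilization (treated FRET ratio/DMSO, Em 665/620 nm), fit 4-parameter for EC50 from 2 replicates. Compounds sat with 4 nM GST-BRAF and 10 nM in-house His-MEK1 1 h at 25° C (Tris pH 7.5, MgCl2, 100 μM ATP), then detection antibodies 1 h.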

[2] = system: p-ERK1/2 in HCT116 cells; assay: AlphaLISA p-ERK assay, cellular inhibition of ERK phosphorylation in HCT116 cells; type: cell-based; conditions: Homo sapiens, HCT-116, 2 hours treatment, PMA stimulation 30 mins
Protocol: (§1) Cell culture: HCTI 16, HT-29, and NCI-H292 cells were acquired from American Type Culture Collection (ATCC). HCT116 and HT-29 cells were maintained in ATCC-formulated McCoy's 5a Medium Modified supplemented with 10% fetal bovine serum, NCI-H292 cells were cultured in ATCC formulated RPMI-1640 supplemented with 10% fetal bovine serum. All cells were maintained at 37° C., 5% CO2.
Efficacy of exemplary compounds in cellular inhibition of ERK phosphorylation: Phosphorylation status of ERK1/2 (p-ERK) was used as a readout for inhibition of BRAF-MEK pathway. p-ERK was detected using an immunoassay for quantitative detection of phospho-ERK 1/2 (phosphorylated on Thr202/Tyr204 in ERK1, or Thr185/Tyr187 in ERK2), such as the AlphaLISA® SureFire® Ultra™ p-ERK1/2 (Thr202/Tyr204) kit (Perkin Elmer). HCT116 cells were plated at 10,000 cells per well in 384-well TC-treated plates (Coming). Cells were plated for 24 hours, the medium was then aspirated and cells were treated with vehicle (DMSO) or test compounds (0.1% DMSO in final volume) prepared in serum free, phenol red free medium for 2 hours. Following treatment, cells were stimulated with PMA (1.25 μM/well) for 30 mins after which the medium was aspirated, and the cells were lysed for 10 mins with 1× lysis buffer supplemented with Halt Protease and Phosphatase Inhibitor Cocktail (Thermo Fisher). The lysate was transferred to a 384 well Alpha-plate (PerkinElmer) and incubated for 1 hour with acceptor bead mix followed by 1 hour incubation with donor bead mix. After incubation, the plate was read on a Cytation5 microplate reader (Agilent). % inhibition as a function of compound concentration from 3 replicate wells was fit with a 4-parameter logistic curve using GraphPad Prism or CDD Vault to derive IC50 values.
(§2) In this table, for the BRAF ADP Glo kinase assay, “A” indicates IC50 of less than 5 nM; “B” indicates IC50 of between 5 nM to 50 nM; and “C” indicates IC50 of between 50 nM to 500 nM. “D” indicates IC50 of greater than 500 nM. For the BRAF-MEK TR-FRET assay, “A” indicates EC50 of less than 50 nM; “B” indicates EC50 of between 50 nM to 200 nM; and “C” indicates EC50 of between 200 nM to 1 μM. “D′” indicates EC50 of greater than 1 μM. For the AlphaLisa P-ERK assay, “A” indicates IC50 of less than 1 nM; “B” indicates IC50 of between 1 nM to 10 nM; and “C” indicates IC50 of between 10 nM to 100 nM. “D” indicates IC50 of greater than 100 nM. For the cell viability assay, “A” indicates IC50 of less than 1 nM; “B” indicates IC50 of between 1 nM to 10 nM; and “C” indicates IC50 of between 10 nM to 100 nM. “D” indicates IC50 of greater than 100 nM.

[3] = molecular target: T1, MEK1 (Homo sapiens, UniProt Q02750); assay: MEK1 kinase cascade assay (ADP-Glo), inhibition of MEK1 kinase activity; type: biochemical; conditions: 25 nM BRAF, 6.25 nM MEK1, 0.5 μM ERK, 1 mM ATP; 20 min preincubation, 1 hr at 25° C.; read-out: BRAF ADP Glo kinase assay V3 (IC50)
T1 construct: purchased SignalChem M02-14H
T1 sequence (Q02750 whole entry): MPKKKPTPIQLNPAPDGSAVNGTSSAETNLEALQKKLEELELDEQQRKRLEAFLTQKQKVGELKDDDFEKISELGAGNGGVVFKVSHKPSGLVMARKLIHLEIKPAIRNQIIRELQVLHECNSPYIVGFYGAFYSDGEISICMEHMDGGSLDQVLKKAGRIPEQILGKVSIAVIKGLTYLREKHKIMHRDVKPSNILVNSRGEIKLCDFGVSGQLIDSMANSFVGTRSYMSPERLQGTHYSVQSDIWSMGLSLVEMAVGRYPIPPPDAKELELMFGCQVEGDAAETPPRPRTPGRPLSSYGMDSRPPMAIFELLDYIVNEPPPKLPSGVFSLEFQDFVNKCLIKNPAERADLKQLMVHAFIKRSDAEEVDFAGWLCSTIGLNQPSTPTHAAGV
T1 sequence (P15056 445-723 partner limits assumed): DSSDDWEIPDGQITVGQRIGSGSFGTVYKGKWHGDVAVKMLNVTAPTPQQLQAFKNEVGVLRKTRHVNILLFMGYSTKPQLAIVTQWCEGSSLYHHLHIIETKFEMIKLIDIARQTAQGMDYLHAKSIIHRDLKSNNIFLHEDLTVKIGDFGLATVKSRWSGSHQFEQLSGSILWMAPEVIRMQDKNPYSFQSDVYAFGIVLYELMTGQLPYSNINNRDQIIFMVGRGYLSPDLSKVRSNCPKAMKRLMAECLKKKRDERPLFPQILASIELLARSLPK
Method in brief: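 Cascade format with ADP-Glo read-out: BRAF (25 nM) and compound, 1% DMSO, 20 mins at 25° C, then MEK1 6.25 nM, ERK1 0.5 μM, ATP 1 mM for 1 hr at 25° C in HEPES pH 7.5 buffer with MgCl2, CHAPS and DTT. Percent inhibition, scaled between DMSO and 1 μM Trametinib, was fit by 4-parameter logistic to give IC50 (2 replicate wells).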

[4] = system: NCI-H292 cells; assay: Cell viability assay (CellTiter-Glo), NCI-H292; type: cell-based; conditions: Homo sapiens, 72 hrs, read-out: Cell Viability Assay: IC50 Determination NCI-H292
Protocol: as §1
Efficacy of exemplary compounds in inhibition of cell viability: HCT116 and HT-29 cells were plated at 4,000 cells per well and NCI-H292 cells were plated at 2,000 cells per well in their respective media in 384-well white, TC-treated plates (Corning). After 24 hours of incubation, the cells were treated with vehicle (DMSO) or test compounds (0.1% DMSO in final volume) for 72 hrs. The plate was equilibrated at room temperature for 10 mins followed by addition of a 1:1 volume of CellTiter-Glo® reagent (Promega). The contents were mixed for 2 mins on an orbital shaker to induce lysis. The plate was incubated at room temperature for 10 mins to stabilize luminescent signal before measuring luminescence on a Cytation5 microplate reader (Agilent). % inhibition as a function of compound concentration from 3 replicate wells was fit with a 4-parameter logistic curve using GraphPad Prism or CDD Vault to derive IC50 values.
as §2

## CNS(=O)(=O)Nc1cccc(CN2C(=O)Oc3cc(Oc4cccnn4)cc(F)c3[C@H]2C)c1F (single isomer, unassigned) [Compound 57]
[1]
  EC50: 50 to 200 nM
[2]
  IC50: 1 to 10 nM
[3]
  IC50: 5 to 50 nM
[4]
  IC50: 1 to 10 nM

## CN(C)S(=O)(=O)Nc1cccc(CN2C(=O)Oc3cc(Oc4cccnn4)ccc3C23COC3)c1F [Compound 64, 3-({3-[(dimethylsulfamoyl)amino]-2-fluorophenyl}methyl)-7-(pyridazin-3-yloxy)-2,3-dihydrospiro[1,3-benzoxazine-4,3′-oxetan]-2-one]
[1]
  EC50: 50 to 200 nM
[2]
  IC50: 1 to 10 nM
[3]
  IC50: < 5 nM
[4]
  IC50: 1 to 10 nM

## CNS(=O)(=O)Nc1cccc(CN2C(=O)Oc3cc(Oc4cccnn4)c(F)cc3C23COC3)c1F [Compound 58, 6-fluoro-3-({2-fluoro-3-[(methylsulfamoyl)amino]phenyl}methyl)-7-(pyridazin-3-yloxy)-2,3-dihydrospiro[1,3-benzoxazine-4,3′-oxetan]-2-one]
[1]
  EC50: < 50 nM
[2]
  IC50: < 1 nM
[3]
  IC50: < 5 nM
[4]
  IC50: < 1 nM

## CNS(=O)(=O)Nc1cccc(CN2C(=O)Oc3cc(Oc4cccnn4)ccc3C23CCC3)c1F [Compound 41, 3-({2-fluoro-3-[(methylsulfamoyl)amino]phenyl}methyl)-7-(pyridazin-3-yloxy)-2,3-dihydrospiro[1,3-benzoxazine-4,1′-cyclobutan]-2-one]
[1]
  EC50: < 50 nM
[2]
  IC50: 1 to 10 nM
[3]
  IC50: < 5 nM
[4]
  IC50: 1 to 10 nM

## CNS(=O)(=O)Nc1nccc(CN2C(=O)Oc3cc(Oc4ncco4)ccc3C23COC3)c1F [Compound 68, 3-({3-fluoro-2-[(methylsulfamoyl)amino]pyridin-4-yl}methyl)-7-(1,3-oxazol-2-yloxy)-2,3-dihydrospiro[1,3-benzoxazine-4,3′-oxetan]-2-one]
[1]
  EC50: 50 to 200 nM
[2]
  IC50: 10 to 100 nM
[3]
  IC50: 5 to 50 nM
[4]
  IC50: 1 to 10 nM

## CNS(=O)(=O)Nc1cccc(CN2C(=O)Oc3cc(Oc4cccnn4)ccc3C23COC3)c1F [Compound 81, 3-({2-fluoro-3-[(methylsulfamoyl)amino]phenyl}methyl)-7-(pyridazin-3-yloxy)-2,3-dihydrospiro[1,3-benzoxazine-4,3′-oxetan]-2-one]
[1]
  EC50: 50 to 200 nM
[2]
  IC50: 1 to 10 nM
[3]
  IC50: < 5 nM
[4]
  IC50: 1 to 10 nM

## CNS(=O)(=O)Nc1cccc(CN2C(=O)Oc3cc(Oc4cccnn4)ccc3[C@@H]2C)c1F (single isomer, unassigned) [Compound 72, (R)-3-({2-fluoro-3-(methylsulfamoyl)amino]phenyl}methyl)-4-methyl-7-(pyridazin-3-yloxy)-3,4-dihydro-2H-1,3-benzoxazin-2-one or (S)-3-({2-fluoro-3-(methylsulfamoyl)amino]phenyl}methyl)-4-methyl-7-(pyridazin-3-yloxy)-3,4-dihydro-2H-1,3-benzoxazin-2-one]
[1]
  EC50: 50 to 200 nM
[2]
  IC50: 1 to 10 nM
[3]
  IC50: 5 to 50 nM
[4]
  IC50: 1 to 10 nM

## [2H]C1([2H])c2ccc(Oc3cccnn3)cc2OC(=O)N1Cc1cccc(NS(=O)(=O)NC)c1F [Compound 52, 3-{[2-fluoro-3-(methylaminosulfonylamino)phenyl]methyl}-7-(3-pyridazinyloxy)(4,4-^2H2)-3,4-dihydro-2H-1,3-benzoxazin-2-one]
[1]
  EC50: 50 to 200 nM
[2]
  IC50: 1 to 10 nM
[3]
  IC50: 5 to 50 nM
[4]
  IC50: 1 to 10 nM

## CNS(=O)(=O)Nc1cccc(CN2C(=O)Oc3c(ccc(Oc4cccnn4)c3F)C23COC3)c1F [Compound 42]
[1]
  EC50: 50 to 200 nM
[2]
  IC50: 1 to 10 nM
[3]
  IC50: < 5 nM
[4]
  IC50: 1 to 10 nM

## CNS(=O)(=O)Nc1cccc(CN2Cc3ccc(OC(=O)N(C)C)c(F)c3OC2=O)c1F [Compound 131, 8-fluoro-3-(2-fluoro-3-((N-methylsulfamoyl)amino)benzyl)-2-oxo-3,4-dihydro-2H-benzo[e][1,3]oxazin-7-yl dimethylcarbamate]
[1]
  EC50: 50 to 200 nM
[2]
  IC50: 1 to 10 nM
[3]
  IC50: < 5 nM
[4]
  IC50: 1 to 10 nM

## CNS(=O)(=O)Nc1cccc(CN2Cc3cc(Cl)c(Oc4ncccn4)cc3OC2=O)c1F [Compound 148, 6-chloro-3-({2-fluoro-3-[(methylsulfamoyl)amino]phenyl}methyl)-7-(pyrimidin-2-yloxy)-3,4-dihydro-2H-1,3-benzoxazin-2-one]
[2]
  IC50: 10 to 100 nM
[3]
  IC50: 5 to 50 nM
[4]
  IC50: 10 to 100 nM

## O=C1Oc2cc(Oc3ccccn3)ccc2CN1Cc1cccc(NS(=O)(=O)C2CC2)c1F [Compound 62, N-(2-fluoro-3-((2-oxo-7-(pyridin-2-yloxy)-2H-benzo[e][1,3]oxazin-3(4H)-yl)methyl)phenyl)cyclopropanesulfonamide]
[2]
  IC50: > 100 nM
[3]
  IC50: 5 to 50 nM
[4]
  IC50: > 100 nM

## CNS(=O)(=O)Nc1nccc(CN2Cc3ccc(Oc4ncco4)cc3OC2=O)c1F [Compound 162, 3-{[3-fluoro-2-(methylaminosulfonylamino)-4-pyridyl]methyl}-7-(1,3-oxazol-2-yloxy)-3,4-dihydro-2H-1,3-benzoxazin-2-one]
[1]
  EC50: 50 to 200 nM
[2]
  IC50: 10 to 100 nM
[4]
  IC50: 1 to 10 nM

## CNS(=O)(=O)Nc1cccc(CN2Cc3ccc(Oc4ccccn4)cc3OC2=O)c1F [Compound 65, 3-({2-fluoro-3-[(methylsulfamoyl)amino]phenyl}methyl)-7-(pyridin-2-yloxy)-3,4-dihydro-2H-1,3-benzoxazin-2-one]
[2]
  IC50: 10 to 100 nM
[3]
  IC50: < 5 nM
[4]
  IC50: 10 to 100 nM

## O=C1Oc2cc(Oc3cccnn3)ccc2C2(COC2)N1Cc1cccc(NS(=O)(=O)C2CC2)c1F [Compound 59, N-(2-fluoro-3-{[2-oxo-7-(pyridazin-3-yloxy)-2,3-dihydrospiro[1,3-benzoxazine-4,3′-oxetan]-3-yl]methyl}phenyl)cyclopropanesulfonamide]
[2]
  IC50: 1 to 10 nM
[3]
  IC50: 5 to 50 nM
[4]
  IC50: 1 to 10 nM

## CNS(=O)(=O)Nc1cccc(CN2Cc3ccc(C(F)(F)C(=O)N(C)C)cc3OC2=O)c1F [Compound 133]
[2]
  IC50: 10 to 100 nM
[3]
  IC50: 5 to 50 nM
[4]
  IC50: 10 to 100 nM

## O=C1Oc2cc(Oc3nccnn3)ccc2C2(CCC2)N1Cc1ccnc(NS(=O)(=O)C2CC2)c1F [Compound 161, (cyclopropylsulfonyl)[3-fluoro-4-({2-oxo-7-(1,2,4-triazin-3-yloxy)-2H,3H-spiro[1,3-benzoxazine-4,1′-cyclobutan]-3-yl}methyl)-2-pyridyl]amine]
[1]
  EC50: 50 to 200 nM
[2]
  IC50: 10 to 100 nM
[4]
  IC50: 1 to 10 nM
